The record followed here is the supplement of paper PMC6045584.

Compound in one test: C[C@]1(O)C[C@@H](c2nc(-c3ccc4ccc(-c5ccccc5)nc4c3)c3c(N)nccn32)C1 [OSI-906]
Nature of the test: surviving fraction relative to DMSO-only wells; higher = less growth inhibition. To be noted: exposure time: 5 days. A digest of the protocol:
(§1)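 Five days of continuous inhibitor exposure, at 0.5, 1, 5, 10, 50, 100, 500 and 1000 nM, followed a 24-hour period after log-phase tumour cell lines were seeded at 250–500 cells per well in 384-well plates. Surviving fraction was derived from CellTiter-Glo luminescence relative to the median of DMSO-only wells. Plates were read after 10 minutes at room temperature, and lines screened three times were kept only if replicate Pearson r >0.7 and median Z' >0.3.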

Compound in a further test: COCC[n+]1c2c(n(Cc3cnccn3)c1C)C(=O)c1ccccc1C2=O [YM155]
Described as above. The conditions noted are these: exposure time: 5 days. A digest of the protocol:
as §1

± gives the standard deviation of the averaged measurements.

With SNU475 LIVER, the surviving fraction is 0.89 ± 0.023 in the test with OSI-906 (0.5 nM); 0.887 ± 0.037 with OSI-906 (1 nM); 0.887 ± 0.012 in the test with OSI-906 (5 nM); 0.869 ± 0.054 in the test with OSI-906 (10 nM); 0.942 ± 0.037 with OSI-906 (50 nM); 0.921 ± 0.013 in the test with OSI-906 (100 nM). The surviving fraction was 0.944 ± 0.011 with OSI-906 (500 nM); 0.963 ± 0.015 with OSI-906 (1000 nM); 0.815 ± 0.055 in the test with YM155 (0.5 nM); 0.991 ± 0.048 with YM155 (1 nM); 0.97 ± 0.044 with YM155 (5 nM); 0.944 ± 0.03 in the test with YM155 (10 nM). The surviving fraction in the test with YM155 (50 nM) was 0.372 ± 0.035; in the test with YM155 (100 nM) it was 0.123 ± 0.012; in the test with YM155 (500 nM) it was 0.0263 ± 0.00058; in the test with YM155 (1000 nM) it was 0.0303 ± 0.0015.

As to HCC78 LUNG, the surviving fraction with OSI-906 (0.5 nM) came out at 0.712 ± 0.28; in the test with OSI-906 (1 nM), 0.809 ± 0.2; in the test with OSI-906 (5 nM), 0.954 ± 0.15; with OSI-906 (10 nM), 0.94 ± 0.15; with OSI-906 (50 nM), 0.801 ± 0.15; with OSI-906 (100 nM), 0.831 ± 0.13. Also, the surviving fraction with OSI-906 (500 nM) is 0.764 ± 0.059; with OSI-906 (1000 nM), 0.842 ± 0.12; with YM155 (0.5 nM), 0.7 ± 0.12; with YM155 (1 nM), 0.701 ± 0.23; with YM155 (5 nM), 0.457 ± 0.059; with YM155 (10 nM), 0.269 ± 0.062. Further, the surviving fraction with YM155 (50 nM) came out at 0.0407 ± 0.0029; in the test with YM155 (100 nM), 0.0247 ± 0.004; in the test with YM155 (500 nM) it was 0.016; with YM155 (1000 nM), 0.0187 ± 0.0025.

For SJSA1 BONE, the surviving fraction was 1.23 ± 0.051 in the test with OSI-906 (0.5 nM); 1.22 ± 0.075 in the test with OSI-906 (1 nM); 1.17 ± 0.2 in the test with OSI-906 (5 nM); 1.21 ± 0.11 in the test with OSI-906 (10 nM); 0.917 ± 0.21 with OSI-906 (50 nM); 1.62 ± 0.052 in the test with OSI-906 (100 nM). Moreover, the surviving fraction was determined as 0.785 ± 0.31 with OSI-906 (500 nM); 0.388 ± 0.031 with OSI-906 (1000 nM); 1 ± 0.059 with YM155 (0.5 nM); 1.6 ± 0.045 with YM155 (1 nM); 1.46 ± 0.018 with YM155 (5 nM); 1.59 ± 0.028 with YM155 (10 nM). For the same test system, the surviving fraction with YM155 (50 nM) came to 1.7 ± 0.11; in the test with YM155 (100 nM) it was 1.7 ± 0.074; with YM155 (500 nM), 1.6 ± 0.15; in the test with YM155 (1000 nM), 1.53 ± 0.16.

In the case of JIMT1 BREAST, the surviving fraction with OSI-906 (0.5 nM) turned out to be 0.921 ± 0.029; with OSI-906 (1 nM), 0.892 ± 0.02; with OSI-906 (5 nM) it was 0.92 ± 0.063; with OSI-906 (10 nM) it was 0.926 ± 0.03; in the test with OSI-906 (50 nM), 1.02 ± 0.039; in the test with OSI-906 (100 nM), 1.08 ± 0.094. For the same test system, the surviving fraction came to 1.02 ± 0.077 in the test with OSI-906 (500 nM); 1.02 ± 0.046 with OSI-906 (1000 nM); 0.971 ± 0.033 with YM155 (0.5 nM); 0.992 ± 0.021 with YM155 (1 nM); 0.888 ± 0.033 with YM155 (5 nM); 0.543 ± 0.056 with YM155 (10 nM). Further, the surviving fraction in the test with YM155 (50 nM) came out at 0.0545 ± 0.0027; in the test with YM155 (100 nM), 0.0323 ± 0.0027; in the test with YM155 (500 nM), 0.0275 ± 0.0013; with YM155 (1000 nM), 0.0318 ± 0.0055.

Consider OSHN BONE, for which the surviving fraction was determined as 0.887 ± 0.024 with OSI-906 (0.5 nM); 0.912 ± 0.026 in the test with OSI-906 (1 nM); 0.902 ± 0.028 with OSI-906 (5 nM); 0.884 ± 0.046 with OSI-906 (10 nM); 0.945 ± 0.0072 with OSI-906 (50 nM); 0.927 ± 0.013 with OSI-906 (100 nM). For the same test system, the surviving fraction amounted to 0.758 ± 0.012 in the test with OSI-906 (500 nM); 0.732 ± 0.027 with OSI-906 (1000 nM); 1.02 ± 0.021 with YM155 (0.5 nM); 1.05 ± 0.019 in the test with YM155 (1 nM); 0.265 ± 0.013 with YM155 (5 nM); 0.097 ± 0.008 in the test with YM155 (10 nM). The surviving fraction with YM155 (50 nM) came out at 0.0293 ± 0.0011; with YM155 (100 nM), 0.025 ± 0.001; in the test with YM155 (500 nM), 0.0203 ± 0.00058; with YM155 (1000 nM), 0.027 ± 0.0017.

For SG32 HEADNECK, the surviving fraction with OSI-906 (0.5 nM) came to 0.714 ± 0.15; in the test with OSI-906 (1 nM), 0.689 ± 0.0095; with OSI-906 (5 nM), 0.767 ± 0.13; with OSI-906 (10 nM) it was 0.632 ± 0.057; with OSI-906 (50 nM), 0.845 ± 0.021; with OSI-906 (100 nM), 0.793 ± 0.071. For the same test system, the surviving fraction amounted to 0.596 ± 0.084 with OSI-906 (500 nM); 0.498 ± 0.048 in the test with OSI-906 (1000 nM); 0.841 ± 0.053 with YM155 (0.5 nM); 0.83 ± 0.12 in the test with YM155 (1 nM); 0.438 ± 0.017 with YM155 (5 nM); 0.238 ± 0.036 with YM155 (10 nM). Also, the surviving fraction with YM155 (50 nM) was found to be 0.0633 ± 0.027; with YM155 (100 nM), 0.025 ± 0.0036; with YM155 (500 nM), 0.0197 ± 0.0021; with YM155 (1000 nM), 0.0227 ± 0.0011.

As for HELA CERVIX, the surviving fraction in the test with OSI-906 (0.5 nM) was 0.971 ± 0.033; in the test with OSI-906 (1 nM), 0.981 ± 0.054; in the test with OSI-906 (5 nM), 0.955 ± 0.069; in the test with OSI-906 (10 nM), 0.88 ± 0.09; with OSI-906 (50 nM), 1.03 ± 0.035; with OSI-906 (100 nM), 1.07 ± 0.036. Further, the surviving fraction is 1 ± 0.081 in the test with OSI-906 (500 nM); 1.01 ± 0.048 with OSI-906 (1000 nM); 0.9905 ± 0.0069 with YM155 (0.5 nM); 0.966 ± 0.06 in the test with YM155 (1 nM); 0.487 ± 0.0092 with YM155 (5 nM); 0.23 ± 0.0095 with YM155 (10 nM). Further, the surviving fraction with YM155 (50 nM) was 0.0242 ± 0.00076; in the test with YM155 (100 nM), 0.021 ± 0.0013; in the test with YM155 (500 nM), 0.0187 ± 0.00058; with YM155 (1000 nM), 0.0228 ± 0.00076.
